Assay results: PMC9186412, “Rational Framework for the Design of Trp- and Arg-Rich Peptide Antibiotics Against Multidrug-Resistant Bacteria” (Frontiers in Microbiology, 2022)
One block for each compound: values may come before it. Where no end group is shown, it is not given here.

What was measured:
[1] = tested on: ESKAPE pathogens and Escherichia coli; details: ESKAPE pathogens and
Description: Bacteria were incubated with each of the indicated peptides in MHB2. […] To assess bactericidal properties of the peptide, the assay was modified by using 15% fetal bovine serum (FBS, for a more physiologically relevant test condition) mixed with 25% MHB2 and 60% PBS. […] Data were analyzed using GraphPad Prism software.

[2] = tested on: human red blood cells (RBCs); details: at 16 μM; ref de Breij et al., 2018; cited from earlier work
CD-1 mice = experiment: Mouse toxicity, maximum tolerated dose (IV); assay type: in vivo
Description: For all animal experiments, we used the protocol #18071776 approved by the Institutional Animal Care and Use Committee (IACUC) of the University of Pittsburgh, which is consistent with the NIH guide for the care and use of laboratory animals. In a preliminary (pilot) experiment, female CD-1 mice (three per group) weighing about 20 g were injected different doses of peptides up to 45mpk via a lateral tail vein (IV) to determine an MTD (dose that results in no apparent morbidity or mortality). To confirm the MTD determined in the pilot study, CD-1 mice (seven per group) were randomized to receive a dose based on the preliminary MTD (IV) or PBS (100 μL). The animals were monitored for up to 7 days for morbidity and survival.

mean MIC [1]: > 10 µM
Compound: CC(C)C[C@H](NC(=O)[C@H](Cc1ccccc1)NC(=O)[C@@H]1CCCN1C(=O)[C@H](Cc1c[nH]c2ccccc12)NC(=O)[C@H](Cc1c[nH]c2ccccc12)NC(=O)[C@H](Cc1c[nH]c2ccccc12)NC(=O)[C@@H]1CCCN1C(=O)[C@H](Cc1ccccc1)NC(=O)[C@H](CCCNC(=N)N)NC(=O)[C@H](CCCNC(=N)N)NC(=O)[C@@H](N)C(C)C)C(=O)N[C@@H](CCCNC(=N)N)C(=O)N[C@@H](CCCNC(=N)N)C(=O)O [tritrpticin]

Compound: Ac-LKRVWKRVFKLLKRYWRQLKKPVR-NH2 [SAAP-148]
RBC lysis [2]: moderate RBC lysis

Compound: RRVWRWVRRVWRWVRR [E35]
morbidity and mortality (CD-1 mice; 7 CD-1 mice, 30 mpk systemically, monitored up to 7 days): no apparent morbidity and mortality
tolerated systemic dose (maximum tolerated dose, MTD) (CD-1 mice; CD-1 mice, tail vein (IV), pilot with doses up to 45 mg/kg): up to 30 mpk
% RBC lysis: 22%
